In paper PMC9147192, “Small Molecule Arranged Thermal Proximity Coaggregation (smarTPCA)—A Novel Approach to Characterize Protein–Protein Interactions in Living Cells by Similar Isothermal Dose–Responses” (International Journal of Molecular Sciences, 2022):
“And” between values parts separate entries of the source, which are not always exact repeats. Equal values may be shown once.

What was measured:
MAPK14 [1] = target: T1, MAPK14 (Homo sapiens, UniProt Q16539); test: CETSA in living HL-60 cells, immunoblot; assay type: cell-based
T1 sequence (Q16539 whole entry): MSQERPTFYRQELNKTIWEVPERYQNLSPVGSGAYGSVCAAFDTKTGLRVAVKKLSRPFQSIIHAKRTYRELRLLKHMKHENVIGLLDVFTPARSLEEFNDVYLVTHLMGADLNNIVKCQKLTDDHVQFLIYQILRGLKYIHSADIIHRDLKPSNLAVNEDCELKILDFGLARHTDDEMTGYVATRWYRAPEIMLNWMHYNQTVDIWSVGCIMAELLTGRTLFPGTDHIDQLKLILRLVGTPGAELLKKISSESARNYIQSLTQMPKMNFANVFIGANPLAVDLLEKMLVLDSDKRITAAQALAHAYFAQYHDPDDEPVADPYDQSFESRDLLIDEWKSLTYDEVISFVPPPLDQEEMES
Experimental: First, we conducted CETSA experiments according to Jafari et al.. […] Subsequent SDS-PAGE and immunoblotting were performed according to optimized conditions allowing for parallel detection of MAPK14, MAPKAPK2, MAPKAPK3, and GSK-3α (Supplementary Figure S1).
(§1) HL-60 cells (ATCC No. CCL-240) were expanded to about […] in 80 mL cell culture medium (RPMI-1640 supplemented with 10% (v/v) FBS, 1% (v/v) penicillin-streptomycin and 1% (v/v) L-glutamine solution) and divided into four aliquots (20 mL each, 25 million cells per flask). […] The same volume of DMSO was added to the remaining aliquot serving as the vehicle (DMSO) control. After incubation (1 h, 37 °C, 5% CO2, in cell culture CO2 incubator), the cell suspensions were transferred into 50 mL conical tubes, cell number and viability were determined, and after centrifugation (300 relative centrifugal force (rcf), 3 min, room temperature (r.t.)), the supernatants were completely removed and discarded. The cells were washed using 20 mL Dulbecco’s phosphate-buffered saline (PBS), respectively, by resuspension and centrifugation (300 rcf, 3 min, r.t.). After the complete removal of the supernatants, the cells were transferred into pre-weighed 2 mL Eppendorf tubes using 0.5 mL PBS (r.t.), respectively, for resuspending. After centrifugation (300 rcf, 3 min, r.t.) and removing as much as possible of the supernatants, the cell wet weights were determined.
(§2) The suspensions were shortly centrifuged (1 s or less) using a benchtop centrifuge that was equipped with an inset for PCR tubes to release trapped air and to achieve an even liquid level without pelleting the cells. The 100 µL cell suspensions were then temperature treated by a 7 min pre-incubation at r.t., a 3 min incubation at the following different temperatures in the PCR cycler (DNA Engine Tetrad 2, lid temperature 70 °C, gradient block 1: 36–55 °C, gradient block 2: 48–67 °C), and a 3 min post-incubation at r.t. in a metal heating block for uniform heat dissipation.
(§3) The cells were lysed by four freeze/thaw cycles consisting of thawing the samples (in a heat block set to 25 °C and shaking at 1250 rpm) accompanied by mixing them several times by inversion and then shock freezing them again in liquid nitrogen. The resulting lysates were kept cold (on ice or 4 °C) from then on. After centrifugation (20,000 rcf, 30 min, 4 °C) to pellet the cell debris together with precipitated and aggregated proteins, the supernatants were recovered and, after determining the total protein concentration (Pierce 660 nm Protein Assay, BSA as standard), the resulting cell extracts containing the fraction of soluble, non-denatured proteins were shock frozen in liquid nitrogen and stored at −80 °C.
For each sample set comprising either ten temperature range samples or ten compound concentration range samples, the same volume of the cell extracts containing the fraction of soluble, non-denatured proteins was used for further analysis. This volume was determined using the two lowest temperature samples (36.5 and 41.2 °C) per temperature range sample set so that they contained an average of 5 µg total protein (e.g., 2.78 µL for all temperature range samples of a sample set whose two lowest temperature samples contain an average of 1.8 mg/mL protein). For the compound concentration range experiments, all samples of a set were used for averaging.

MAPK14 [2] = target: T1, MAPK14; test: TPP-TR in living HL-60 cells; assay type: cell-based; conditions: 20 μM, single set (no replicates)
Experimental: as §1, §2, §3
(§4) For each sample set comprising ten temperature range samples, the same volume of the cell extracts containing the fraction of soluble, non-denatured proteins was used for further analysis. Volume calculation for 30 µg total protein was performed as described for SDS-PAGE and immunoblotting. The calculated volume was respectively transferred into 0.5 mL LoBind Eppendorf tubes and evaporated to dryness using vacuum centrifugation (SpeedVac concentrator, Eppendorf, Hamburg, Germany). The dried proteins were each reconstituted in 10 µL of SDS sample buffer (containing DTT) and incubated for 30 min at 50 °C with shaking (700 rpm). 1.111 µL 1 M iodoacetamide (IAA) was added to each sample (final 100 mM IAA), then the samples were mixed and incubated for 30 min at r.t. in the dark. Sample quality was controlled by SDS-PAGE/silver staining using 0.926 µL of each sample (2.5 µg on average for the two lowest temperature samples; 26-well 4–12% Bis-Tris polyacrylamide gels, Novex NuPAGE, Thermo Scientific; 15 min at 50 V, about 1.5 h at 200 V using the recommended MOPS running buffer).

NUDT1 = NUDT1 (Homo sapiens, UniProt P36639); test: TPP-CCR in living HL-60 cells
MRPS34 = MRPS34 (Homo sapiens, UniProt P82930); test: TPP-CCR in living HL-60 cells
MTMR1 = MTMR1 (Homo sapiens, UniProt Q13613); test: TPP-CCR in living HL-60 cells
MAPK3 = target: T2, MAPK3 (Homo sapiens, UniProt P27361); test: TPP-TR in living HL-60 cells; assay type: cell-based; conditions: 20 μM, single set (no replicates)
T2 construct: endogenous in cells; host or cells: HL-60 (ATCC CCL-240)
T2 sequence (P27361 whole entry): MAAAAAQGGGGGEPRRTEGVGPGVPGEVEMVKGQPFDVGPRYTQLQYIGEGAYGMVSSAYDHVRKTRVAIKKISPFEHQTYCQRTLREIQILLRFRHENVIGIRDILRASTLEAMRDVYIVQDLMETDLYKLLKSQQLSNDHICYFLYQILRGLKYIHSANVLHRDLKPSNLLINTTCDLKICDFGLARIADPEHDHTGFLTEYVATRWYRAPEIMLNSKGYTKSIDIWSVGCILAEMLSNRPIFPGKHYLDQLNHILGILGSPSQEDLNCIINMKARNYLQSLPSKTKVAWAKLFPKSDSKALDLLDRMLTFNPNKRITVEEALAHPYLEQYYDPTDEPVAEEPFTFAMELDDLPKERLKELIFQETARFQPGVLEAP
Experimental: as §1, §2, §3, §4

MYLK = system: MYLK; set-up: method as in PMID 23398362; conditions: cited from earlier work
MAPK8 = system: MAPK8; set-up: method as in PMID 23398362; conditions: cited from earlier work
WDR46 = WDR46 (Homo sapiens, UniProt O15213); test: TPP-CCR in living HL-60 cells
WDR46, sequence (O15213 whole entry): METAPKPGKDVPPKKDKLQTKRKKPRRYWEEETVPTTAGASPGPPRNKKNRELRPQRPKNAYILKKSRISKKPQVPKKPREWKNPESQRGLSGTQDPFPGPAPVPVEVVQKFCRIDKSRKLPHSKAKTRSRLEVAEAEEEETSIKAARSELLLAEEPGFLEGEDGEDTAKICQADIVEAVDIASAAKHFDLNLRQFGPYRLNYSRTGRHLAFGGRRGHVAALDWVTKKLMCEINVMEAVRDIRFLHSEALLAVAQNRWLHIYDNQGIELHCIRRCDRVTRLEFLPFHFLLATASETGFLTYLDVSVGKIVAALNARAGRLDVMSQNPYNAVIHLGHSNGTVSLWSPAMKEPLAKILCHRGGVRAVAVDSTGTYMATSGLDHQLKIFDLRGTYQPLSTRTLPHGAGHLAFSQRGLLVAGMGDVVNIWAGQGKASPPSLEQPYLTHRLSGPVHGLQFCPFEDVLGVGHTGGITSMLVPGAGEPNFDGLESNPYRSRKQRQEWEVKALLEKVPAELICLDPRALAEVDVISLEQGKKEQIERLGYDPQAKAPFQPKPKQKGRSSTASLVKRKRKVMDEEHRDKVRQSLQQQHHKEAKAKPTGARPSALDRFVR

[3] = living HL-60 cells, […] °C, TMT-MS

Cn1c(NC[C@@H](N)Cc2ccccc2)nc(-c2ccncc2)c(-c2ccc3ccccc3c2)c1=O [AMG-548]
ΔTm at 20 µM (MAPK14 [1]; HL-60, living HL-60 cells, 20 µM inhibitor, read-out: ΔTm to DMSO (MAPK14)): 14.8 °C
Tm (MAPK14 [1]; MAPK14, living cells): 60.58 °C
ΔTm to DMSO (MAPK14 [1]; MAPK14, living cells): 14.76 °C
Tm (MAPK14) (MAPK14 [1]; living HL-60 cells, 20 µM inhibitor): 60.6 ± 0.5 °C and 60.58 °C
ΔTm to DMSO (MAPK14) (MAPK14 [1]; living HL-60 cells, 20 µM inhibitor, 20 µM): 14.76 °C
thermal stabilization in melting curves (MAPK14) (MAPK14 [2]): thermal stabilizations
EC50 (NUDT1): 2290 nM
Hill slope (NUDT1) (NUDT1; [3]): 0.77
EC50 (MRPS34): 60.3 nM
Hill slope (MRPS34) (MRPS34; [3]): 0.26
EC50 (MTMR1): 105 nM
Hill slope (MTMR1) (MTMR1; [3]): 0.38

Cc1cnc(Nc2ccc(F)cc2Cl)nc1-c1c[nH]c(C(=O)N[C@H](CO)c2cccc(Cl)c2)c1 [ERK 11e]
thermal stabilization in melting curves (MAPK3) (MAPK3): thermal stabilization

C[S+]([O-])c1ccc(-c2nc(-c3ccncc3)c(-c3ccc(F)cc3)[nH]2)cc1 (centres unmarked) [SB203580]
activity against MYLK (MYLK): inactivity
activity against MAPK8 (MAPK8): inactivity
EC50 (WDR46): 32.4 nM
Hill slope (WDR46) (WDR46; [3]): 0.23
